Numbers after ± are expanded uncertainties.
Details: 303.14 K, Liquid, Vibrating tube method

CCCCCCC(=O)OCC(COC(=O)CCCCCC)(COC(=O)CCCCCC)COC(=O)CCCCCC [pentaerythritol tetraheptanoate]
Details	mass density [kg/m3]
3038.7 kPa	972.7 ± 1.2
3058.7 kPa	972.6 ± 1.2
3082.4 kPa	972.7 ± 1.2
3102.9 kPa	972.7 ± 1.2
3122.8 kPa	972.6 ± 1.2
3144 kPa	972.7 ± 1.2
3168.8 kPa	972.6 ± 1.2
3190.1 kPa	972.7 ± 1.2
3211.6 kPa	972.8 ± 1.2
3237.6 kPa	972.8 ± 1.2
3258.9 kPa	972.7 ± 1.2
3281.4 kPa	972.8 ± 1.2
3307.8 kPa	972.7 ± 1.2
3330.1 kPa	972.8 ± 1.2
3352.7 kPa	972.9 ± 1.2
3380 kPa	972.9 ± 1.2
3403.4 kPa	972.9 ± 1.2
3426.8 kPa	973 ± 1.2
3450.4 kPa	972.9 ± 1.2
3479.2 kPa	972.9 ± 1.2
3502.9 kPa	972.9 ± 1.2
3527.3 kPa	972.9 ± 1.2
3557 kPa	973 ± 1.2
3581.9 kPa	973.1 ± 1.2
3607.2 kPa	972.9 ± 1.2
3632.9 kPa	973 ± 1.2
3663.7 kPa	973 ± 1.2
3689.2 kPa	973.1 ± 1.2
3719.9 kPa	973.1 ± 1.2
3746.2 kPa	973 ± 1.2
3772.9 kPa	973.1 ± 1.2
3800.2 kPa	973.1 ± 1.2
3832.6 kPa	973.2 ± 1.2
3860.2 kPa	973.1 ± 1.2
3888.8 kPa	973.1 ± 1.2
3922.9 kPa	973.2 ± 1.2
3951.5 kPa	973.3 ± 1.2
3980.6 kPa	973.3 ± 1.2
4009.8 kPa	973.2 ± 1.2
4044.8 kPa	973.2 ± 1.2
4074.3 kPa	973.3 ± 1.2
4103.9 kPa	973.4 ± 1.2
4139.9 kPa	973.4 ± 1.2
4170.1 kPa	973.4 ± 1.2
4200.4 kPa	973.3 ± 1.2
4233.1 kPa	973.3 ± 1.2
4239.8 kPa	973.3 ± 1.2
4241.6 kPa	973.4 ± 1.2
4243.3 kPa	973.4 ± 1.2
4244.7 kPa	973.5 ± 1.2
4245.2 kPa	973.4 ± 1.2
4245.9 kPa	973.5 ± 1.2
4246.6 kPa	973.4 ± 1.2
4246.8 kPa	973.5 ± 1.2
4247.1 kPa	973.4 ± 1.2
4247.3 kPa	973.4 ± 1.2
4247.5 kPa	973.5 ± 1.2
4249.4 kPa	973.4 ± 1.2
4257.2 kPa	973.5 ± 1.2
4271.5 kPa	973.3 ± 1.2
4283.5 kPa	973.5 ± 1.2
4296.1 kPa	973.4 ± 1.2
4311.4 kPa	973.5 ± 1.2
4322.4 kPa	973.6 ± 1.2
4342.7 kPa	973.4 ± 1.2
4361.4 kPa	973.4 ± 1.2
4372.3 kPa	973.5 ± 1.2
4382.1 kPa	973.5 ± 1.2
4393.9 kPa	973.6 ± 1.2
4403.8 kPa	973.4 ± 1.2
4413.6 kPa	973.4 ± 1.2
4425.4 kPa	973.5 ± 1.2
4435.5 kPa	973.5 ± 1.2
4445.2 kPa	973.5 ± 1.2
4455.2 kPa	973.5 ± 1.2
4467.5 kPa	973.6 ± 1.2
4476.8 kPa	973.6 ± 1.2
4487.4 kPa	973.6 ± 1.2
4499.3 kPa	973.5 ± 1.2
4509.6 kPa	973.5 ± 1.2
4519.6 kPa	973.6 ± 1.2
4529.8 kPa	973.5 ± 1.2
4541.2 kPa	973.6 ± 1.2
4551.3 kPa	973.5 ± 1.2
4563.6 kPa	973.6 ± 1.2
4573.1 kPa	973.6 ± 1.2
4582.4 kPa	973.6 ± 1.2
4592.3 kPa	973.7 ± 1.2
4605.6 kPa	973.6 ± 1.2
4631.8 kPa	973.7 ± 1.2
4653.8 kPa	973.6 ± 1.2
4676.1 kPa	973.5 ± 1.2
4703.4 kPa	973.7 ± 1.2
4724.4 kPa	973.8 ± 1.2
4743.1 kPa	973.7 ± 1.2
4764.9 kPa	973.7 ± 1.2
4783.4 kPa	973.6 ± 1.2
4801.9 kPa	973.8 ± 1.2
4820.6 kPa	973.8 ± 1.2
4843.5 kPa	973.7 ± 1.2
4862.8 kPa	973.7 ± 1.2
4882.7 kPa	973.8 ± 1.2
4901.8 kPa	973.6 ± 1.2
4925 kPa	973.8 ± 1.2
4944 kPa	973.8 ± 1.2
4964.4 kPa	973.9 ± 1.2
4984.3 kPa	974 ± 1.2
5008.5 kPa	973.8 ± 1.2
5029 kPa	973.9 ± 1.2
5050.1 kPa	974 ± 1.2
5075 kPa	973.9 ± 1.2
5095.7 kPa	973.9 ± 1.2
5116.9 kPa	974.1 ± 1.2
5138.3 kPa	974 ± 1.2
5164.1 kPa	974 ± 1.2
5185.5 kPa	974.1 ± 1.2
5207.3 kPa	974 ± 1.2
5229.7 kPa	974.1 ± 1.2
5256.1 kPa	974.1 ± 1.2
5277.9 kPa	974 ± 1.2
5304.9 kPa	974 ± 1.2
5328.1 kPa	974.1 ± 1.2
5350.7 kPa	974.1 ± 1.2
5374.3 kPa	974.1 ± 1.2
5402.1 kPa	974.2 ± 1.2
5425.6 kPa	974.1 ± 1.2
5450.7 kPa	974.3 ± 1.2
5475.8 kPa	974.1 ± 1.2
5504.5 kPa	974.2 ± 1.2
5528.9 kPa	974.2 ± 1.2
5554 kPa	974.3 ± 1.2
5583.9 kPa	974.3 ± 1.2
5609.1 kPa	974.3 ± 1.2
5634.4 kPa	974.3 ± 1.2
5665 kPa	974.3 ± 1.2
5690.9 kPa	974.2 ± 1.2
5717.2 kPa	974.3 ± 1.2
5749 kPa	974.4 ± 1.2
5776.5 kPa	974.3 ± 1.2
5804.6 kPa	974.3 ± 1.2
5832 kPa	974.4 ± 1.2
5860 kPa	974.4 ± 1.2
5888.5 kPa	974.4 ± 1.2
5922.7 kPa	974.5 ± 1.2
5951.6 kPa	974.3 ± 1.2
5980.6 kPa	974.5 ± 1.2
6015.7 kPa	974.6 ± 1.2
6045.3 kPa	974.5 ± 1.2
6075.7 kPa	974.4 ± 1.2
6106.1 kPa	974.5 ± 1.2
6142.6 kPa	974.5 ± 1.2
6174.1 kPa	974.6 ± 1.2
6207 kPa	974.5 ± 1.2
6238.7 kPa	974.6 ± 1.2
6270.8 kPa	974.6 ± 1.2
6309.5 kPa	974.6 ± 1.2
6342.4 kPa	974.7 ± 1.2
6375.9 kPa	974.7 ± 1.2
6416.1 kPa	974.8 ± 1.2
6447.8 kPa	974.8 ± 1.2
6476.3 kPa	974.7 ± 1.2
6510.3 kPa	974.7 ± 1.2
6539.5 kPa	974.8 ± 1.2
6568.7 kPa	974.8 ± 1.2
6598.1 kPa	974.9 ± 1.2
6633.7 kPa	974.8 ± 1.2
6664.4 kPa	974.9 ± 1.2
6695.2 kPa	974.8 ± 1.2
6725.8 kPa	974.8 ± 1.2
6762.4 kPa	974.9 ± 1.2
6793.3 kPa	975 ± 1.2
6825.6 kPa	975 ± 1.2
6857.2 kPa	975 ± 1.2
6895.7 kPa	975 ± 1.2
6928 kPa	975 ± 1.2
6961.5 kPa	975 ± 1.2
7001.6 kPa	975.1 ± 1.2
7035.6 kPa	975.2 ± 1.2
7070.4 kPa	975.2 ± 1.2
7104.5 kPa	975.1 ± 1.2
7139.2 kPa	975.2 ± 1.2
7181.2 kPa	975.2 ± 1.2
7216.8 kPa	975.2 ± 1.2
7253.9 kPa	975.3 ± 1.2
7291.4 kPa	975.3 ± 1.2
7336.6 kPa	975.2 ± 1.2
7375.1 kPa	975.4 ± 1.2
7414.5 kPa	975.3 ± 1.2
7451.6 kPa	975.3 ± 1.2
7469.5 kPa	975.4 ± 1.2
7494.9 kPa	975.4 ± 1.2
7522.2 kPa	975.3 ± 1.2
7549.5 kPa	975.4 ± 1.2
7582.3 kPa	975.4 ± 1.2
7609.7 kPa	975.5 ± 1.2
7637.3 kPa	975.6 ± 1.2
7671.1 kPa	975.5 ± 1.2
7698.9 kPa	975.6 ± 1.2
7728.1 kPa	975.5 ± 1.2
7757.4 kPa	975.5 ± 1.2
7793.5 kPa	975.6 ± 1.2
7823.2 kPa	975.6 ± 1.2
7858.2 kPa	975.7 ± 1.2
7882.7 kPa	975.7 ± 1.2
7904.3 kPa	975.7 ± 1.2
7925.9 kPa	975.6 ± 1.2
7946.9 kPa	975.6 ± 1.2
7972.8 kPa	975.7 ± 1.2
7994 kPa	975.6 ± 1.2
8016.3 kPa	975.8 ± 1.2
8042.7 kPa	975.7 ± 1.2
8064.3 kPa	975.8 ± 1.2
8087 kPa	975.8 ± 1.2
8113.3 kPa	975.8 ± 1.2
8135.7 kPa	975.8 ± 1.2
8158.3 kPa	975.8 ± 1.2
8181.6 kPa	975.8 ± 1.2
8209 kPa	975.8 ± 1.2
8232.1 kPa	975.9 ± 1.2
8255.4 kPa	976 ± 1.2
8283 kPa	975.9 ± 1.2
8305.8 kPa	975.8 ± 1.2
8328.7 kPa	975.9 ± 1.2
